# Measured values from PubChem BioAssay (NCI).
#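 1) Cells in 96-well plates. 2) Compound, 48 h, 5 concentrations. 3) Linear interpolation between surrounding doses. 4) Unreached endpoint = highest concentration. TGI denotes the concentration required for complete inhibition of growth.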
# Key:
# Assay in all cases: NCI tumour cell line growth inhibition, 48 h
# 786-0 renal = test system: 786-0 renal
# A498 renal = test system: A498 renal
# A549 NSCLC = test system: A549 NSCLC
# ACHN renal = test system: ACHN renal
# CAKI-1 renal = test system: CAKI-1 renal
# CCRF-CEM leukemia = test system: CCRF-CEM leukemia
# COLO 205 colon = test system: COLO 205 colon
# DLD-1 colon = test system: DLD-1 colon
# DMS 114 small cell lung = test system: DMS 114 small cell lung
# DMS 273 small cell lung = test system: DMS 273 small cell lung
# EKVX NSCLC = test system: EKVX NSCLC
# HCC-2998 colon = test system: HCC-2998 colon
# HCT-116 colon = test system: HCT-116 colon
# HCT-15 colon = test system: HCT-15 colon
# HL-60(TB) leukemia = test system: HL-60(TB) leukemia
# HOP-18 NSCLC = test system: HOP-18 NSCLC
# HOP-62 NSCLC = test system: HOP-62 NSCLC
# HOP-92 NSCLC = test system: HOP-92 NSCLC
# HT29 colon = test system: HT29 colon
# IGROV1 ovarian = test system: IGROV1 ovarian
# K-562 leukemia = test system: K-562 leukemia
# KM12 colon = test system: KM12 colon
# KM20L2 colon = test system: KM20L2 colon
# LOX IMVI melanoma = test system: LOX IMVI melanoma
# LXFL 529 NSCLC = test system: LXFL 529 NSCLC
# M14 melanoma = test system: M14 melanoma
# M19-MEL melanoma = test system: M19-MEL melanoma
# MALME-3M melanoma = test system: MALME-3M melanoma
# MOLT-4 leukemia = test system: MOLT-4 leukemia
# NCI-H226 lung = test system: NCI-H226 lung
# NCI-H23 lung = test system: NCI-H23 lung
# NCI-H460 lung = test system: NCI-H460 lung
# NCI-H522 lung = test system: NCI-H522 lung
# OVCAR-3 ovarian = test system: OVCAR-3 ovarian
# OVCAR-4 ovarian = test system: OVCAR-4 ovarian
# OVCAR-5 ovarian = test system: OVCAR-5 ovarian
# OVCAR-8 ovarian = test system: OVCAR-8 ovarian
# RPMI-8226 leukemia = test system: RPMI-8226 leukemia
# RXF 393 renal = test system: RXF 393 renal
# RXF-631 renal = test system: RXF-631 renal
# SF-268 CNS = test system: SF-268 CNS
# SF-295 CNS = test system: SF-295 CNS
# SF-539 CNS = test system: SF-539 CNS
# SK-MEL-2 melanoma = test system: SK-MEL-2 melanoma
# SK-MEL-28 melanoma = test system: SK-MEL-28 melanoma
# SK-MEL-5 melanoma = test system: SK-MEL-5 melanoma
# SK-OV-3 ovarian = test system: SK-OV-3 ovarian
# SN12C renal = test system: SN12C renal
# SNB-19 CNS = test system: SNB-19 CNS
# SNB-75 CNS = test system: SNB-75 CNS
# SNB-78 CNS = test system: SNB-78 CNS
# SW-620 colon = test system: SW-620 colon
# TK-10 renal = test system: TK-10 renal
# U251 CNS = test system: U251 CNS
# UACC-257 melanoma = test system: UACC-257 melanoma
# UACC-62 melanoma = test system: UACC-62 melanoma
# UO-31 renal = test system: UO-31 renal
# XF 498 CNS = test system: XF 498 CNS
# BT-549 breast = test system: BT-549 breast
# DU-145 prostate = test system: DU-145 prostate
# HS 578T breast = test system: HS 578T breast
# MCF7 breast = test system: MCF7 breast
# MDA-MB-231 breast = test system: MDA-MB-231 breast
# MDA-MB-435 = test system: MDA-MB-435
# MDA-N = test system: MDA-N
# NCI/ADR-RES ovarian = test system: NCI/ADR-RES ovarian
# P388 leukemia = test system: P388 leukemia
# P388/ADR leukemia = test system: P388/ADR leukemia
# PC-3 prostate = test system: PC-3 prostate
# SN12K1 renal = test system: SN12K1 renal
# SR leukemia = test system: SR leukemia
# T-47D breast = test system: T-47D breast
smiles,measurement,setting,value
COc1cc(CCc2ccc(N)cc2)cc(OC)c1OC,TGI,786-0 renal,> 100 µM
same,TGI,A498 renal,> 100 µM
same,TGI,A549 NSCLC,> 100 µM
same,TGI,ACHN renal,> 100 µM
same,TGI,CAKI-1 renal,> 100 µM
same,TGI,CCRF-CEM leukemia,> 100 µM
same,TGI,COLO 205 colon,53.1 µM
same,TGI,DLD-1 colon,> 100 µM
same,TGI,DMS 114 small cell lung,83.8 µM
same,TGI,DMS 273 small cell lung,> 100 µM
same,TGI,EKVX NSCLC,> 100 µM
same,TGI,HCC-2998 colon,> 100 µM
same,TGI,HCT-116 colon,> 100 µM
same,TGI,HCT-15 colon,> 100 µM
same,TGI,HL-60(TB) leukemia,> 92.5 µM
same,TGI,HOP-18 NSCLC,> 100 µM
same,TGI,HOP-62 NSCLC,> 100 µM
same,TGI,HOP-92 NSCLC,> 100 µM
same,TGI,HT29 colon,> 100 µM
same,TGI,IGROV1 ovarian,> 100 µM
same,TGI,K-562 leukemia,> 100 µM
same,TGI,KM12 colon,> 100 µM
same,TGI,KM20L2 colon,> 100 µM
same,TGI,LOX IMVI melanoma,> 100 µM
same,TGI,LXFL 529 NSCLC,> 100 µM
same,TGI,M14 melanoma,> 100 µM
same,TGI,M19-MEL melanoma,> 100 µM
same,TGI,MALME-3M melanoma,> 80 µM
same,TGI,MOLT-4 leukemia,> 100 µM
same,TGI,NCI-H226 lung,> 100 µM
same,TGI,NCI-H23 lung,> 100 µM
same,TGI,NCI-H460 lung,> 100 µM
same,TGI,NCI-H522 lung,> 83.4 µM
same,TGI,OVCAR-3 ovarian,> 100 µM
same,TGI,OVCAR-4 ovarian,> 100 µM
same,TGI,OVCAR-5 ovarian,> 100 µM
same,TGI,OVCAR-8 ovarian,> 100 µM
same,TGI,RPMI-8226 leukemia,> 100 µM
same,TGI,RXF 393 renal,> 91.1 µM
same,TGI,RXF-631 renal,> 100 µM
same,TGI,SF-268 CNS,> 100 µM
same,TGI,SF-295 CNS,> 61.6 µM
same,TGI,SF-539 CNS,> 100 µM
same,TGI,SK-MEL-2 melanoma,82.6 µM
same,TGI,SK-MEL-28 melanoma,92.8 µM
same,TGI,SK-MEL-5 melanoma,> 89.6 µM
same,TGI,SK-OV-3 ovarian,> 100 µM
same,TGI,SN12C renal,> 100 µM
same,TGI,SNB-19 CNS,> 100 µM
same,TGI,SNB-75 CNS,> 100 µM
same,TGI,SNB-78 CNS,85 µM
same,TGI,SW-620 colon,> 100 µM
same,TGI,TK-10 renal,> 100 µM
same,TGI,U251 CNS,> 100 µM
same,TGI,UACC-257 melanoma,> 100 µM
same,TGI,UACC-62 melanoma,> 89.8 µM
same,TGI,UO-31 renal,> 93.1 µM
same,TGI,XF 498 CNS,> 100 µM
C[C@]12CCC3[C@@H](CC[C@@H]4c5nonc5CC[C@]34C)C1CC[C@@H]2O (some centres undefined),TGI,786-0 renal,75.5 µM
same,TGI,A498 renal,62.7 µM
same,TGI,A549 NSCLC,85.2 µM
same,TGI,ACHN renal,66.3 µM
same,TGI,CAKI-1 renal,52.6 µM
same,TGI,CCRF-CEM leukemia,54.8 µM
same,TGI,COLO 205 colon,71.3 µM
same,TGI,DLD-1 colon,69.4 µM
same,TGI,DMS 114 small cell lung,71.2 µM
same,TGI,DMS 273 small cell lung,60.8 µM
same,TGI,EKVX NSCLC,75.5 µM
same,TGI,HCC-2998 colon,> 100 µM
same,TGI,HCT-15 colon,83.5 µM
same,TGI,HL-60(TB) leukemia,43.9 µM
same,TGI,HOP-18 NSCLC,> 100 µM
same,TGI,HOP-62 NSCLC,> 100 µM
same,TGI,HOP-92 NSCLC,57.7 µM
same,TGI,HT29 colon,> 100 µM
same,TGI,IGROV1 ovarian,> 100 µM
same,TGI,K-562 leukemia,> 100 µM
same,TGI,KM12 colon,> 100 µM
same,TGI,KM20L2 colon,> 100 µM
same,TGI,LOX IMVI melanoma,41.1 µM
same,TGI,LXFL 529 NSCLC,> 100 µM
same,TGI,M14 melanoma,53 µM
same,TGI,M19-MEL melanoma,> 100 µM
same,TGI,MALME-3M melanoma,69.3 µM
same,TGI,MOLT-4 leukemia,55.1 µM
same,TGI,NCI-H226 lung,> 100 µM
same,TGI,NCI-H23 lung,> 100 µM
same,TGI,NCI-H460 lung,71.7 µM
same,TGI,NCI-H522 lung,50.9 µM
same,TGI,OVCAR-3 ovarian,62.1 µM
same,TGI,OVCAR-4 ovarian,82.4 µM
same,TGI,OVCAR-5 ovarian,> 100 µM
same,TGI,OVCAR-8 ovarian,> 100 µM
same,TGI,RPMI-8226 leukemia,38.9 µM
same,TGI,RXF 393 renal,69.6 µM
same,TGI,RXF-631 renal,> 100 µM
same,TGI,SF-268 CNS,> 100 µM
same,TGI,SF-295 CNS,> 100 µM
same,TGI,SF-539 CNS,32.3 µM
same,TGI,SK-MEL-2 melanoma,48.3 µM
same,TGI,SK-MEL-28 melanoma,70 µM
same,TGI,SK-MEL-5 melanoma,41 µM
same,TGI,SK-OV-3 ovarian,84.9 µM
same,TGI,SN12C renal,53.2 µM
same,TGI,SNB-19 CNS,> 100 µM
same,TGI,SNB-75 CNS,77.8 µM
same,TGI,SNB-78 CNS,> 100 µM
same,TGI,SW-620 colon,> 100 µM
same,TGI,TK-10 renal,> 100 µM
same,TGI,U251 CNS,45.7 µM
same,TGI,UACC-257 melanoma,46.9 µM
same,TGI,UACC-62 melanoma,> 100 µM
same,TGI,XF 498 CNS,53.7 µM
NS(=O)(=O)OCCCCCCCOS(N)(=O)=O,TGI,786-0 renal,571 µM
same,TGI,A498 renal,770 µM
same,TGI,A549 NSCLC,729 µM
same,TGI,ACHN renal,951 µM
same,TGI,BT-549 breast,430 µM
same,TGI,CAKI-1 renal,594 µM
same,TGI,CCRF-CEM leukemia,1140 µM
same,TGI,COLO 205 colon,814 µM
same,TGI,DLD-1 colon,1540 µM
same,TGI,DMS 114 small cell lung,669 µM
same,TGI,DMS 273 small cell lung,454 µM
same,TGI,DU-145 prostate,873 µM
same,TGI,EKVX NSCLC,847 µM
same,TGI,HCC-2998 colon,718 µM
same,TGI,HCT-116 colon,820 µM
same,TGI,HCT-15 colon,1190 µM
same,TGI,HL-60(TB) leukemia,469 µM
same,TGI,HOP-18 NSCLC,2350 µM
same,TGI,HOP-62 NSCLC,676 µM
same,TGI,HOP-92 NSCLC,781 µM
same,TGI,HS 578T breast,1790 µM
same,TGI,HT29 colon,1630 µM
same,TGI,IGROV1 ovarian,937 µM
same,TGI,K-562 leukemia,2110 µM
same,TGI,KM12 colon,1000 µM
same,TGI,KM20L2 colon,1470 µM
same,TGI,LOX IMVI melanoma,724 µM
same,TGI,M14 melanoma,579 µM
same,TGI,M19-MEL melanoma,1300 µM
same,TGI,MALME-3M melanoma,1050 µM
same,TGI,MCF7 breast,1780 µM
same,TGI,MDA-MB-231 breast,1030 µM
same,TGI,MDA-MB-435,921 µM
same,TGI,MDA-N,1210 µM
same,TGI,MOLT-4 leukemia,790 µM
same,TGI,NCI-H226 lung,887 µM
same,TGI,NCI-H23 lung,795 µM
same,TGI,NCI-H460 lung,401 µM
same,TGI,NCI-H522 lung,916 µM
same,TGI,NCI/ADR-RES ovarian,1050 µM
same,TGI,OVCAR-3 ovarian,835 µM
same,TGI,OVCAR-4 ovarian,1110 µM
same,TGI,OVCAR-5 ovarian,1400 µM
same,TGI,OVCAR-8 ovarian,707 µM
same,TGI,P388 leukemia,1300 µM
same,TGI,P388/ADR leukemia,2060 µM
same,TGI,PC-3 prostate,1240 µM
same,TGI,RPMI-8226 leukemia,1330 µM
same,TGI,RXF 393 renal,660 µM
same,TGI,SF-268 CNS,1290 µM
same,TGI,SF-295 CNS,1020 µM
same,TGI,SF-539 CNS,645 µM
same,TGI,SK-MEL-2 melanoma,836 µM
same,TGI,SK-MEL-28 melanoma,1680 µM
same,TGI,SK-MEL-5 melanoma,649 µM
same,TGI,SK-OV-3 ovarian,1570 µM
same,TGI,SN12C renal,1180 µM
same,TGI,SN12K1 renal,605 µM
same,TGI,SNB-19 CNS,1250 µM
same,TGI,SNB-75 CNS,711 µM
same,TGI,SNB-78 CNS,2020 µM
same,TGI,SR leukemia,912 µM
same,TGI,SW-620 colon,1280 µM
same,TGI,T-47D breast,1880 µM
same,TGI,TK-10 renal,1920 µM
same,TGI,U251 CNS,683 µM
same,TGI,UACC-257 melanoma,1310 µM
same,TGI,UACC-62 melanoma,412 µM
same,TGI,UO-31 renal,680 µM
same,TGI,XF 498 CNS,112 µM
